Data published in US8642601B2, “Inhibitors of JNK” (Roche Palo Alto LLC, priority 2010, dated 2014).
Where a name gives a salt, the structure may show the parent alone.

Tests used:
JNK = tested on: T1, JNK; assay: JNK Assay in vitro (phosphorylation of GST-ATF2 (19-96) with [γ-33P] ATP); format: biochemical; conditions: JNK isoform not stated for Table 1 (method describes human JNK1α1, JNK2α2, JNK3); Km concentrations of ATP and substrate
T1 construct: Human JNK2α2 assay contains 1 nM enzyme; Human JNK1α1 assay contains 2 nM enzyme
Procedure: JNK activity was measured by phosphorylation of GST-ATF2 (19-96) with [γ-^33P] ATP. The enzyme reaction was conducted at Km concentrations of ATP and the substrate at final volume of 40 μl in buffer containing 25 mM HEPES, pH 7.5, 2 mM dithiothreitol, 150 mM NaCl, 20 mM MgCl2, 0.001% Tween® 20, 0.1% BSA and 10% DMSO. Human JNK2α2 assay contains 1 nM enzyme, 1 μM ATF2, 8 μM ATP with 1 uCi [γ-^33P] ATP. Human JNK1α1 assay contains 2 nM enzyme, 1 μM ATF2, 6 μM ATP with 1 μCi [γ-^33P] ATP. Human JNK3 (Upstate Biotech #14-501M) assay contains 2 nM enzyme, 1 μM ATF2, 4 μM ATP with 1 μCi [γ-^33P] ATP. The enzyme assay was carried out in the presence or absence of several compound concentrations. JNK and compound were pre-incubated for 10 min., followed by initiation of the enzymatic reaction by adding ATP and the substrate. The reaction mixture was incubated at 30° C. for 30 min. At the end of incubation, the reaction was terminated by transferring 25 μl of the reaction mixture to 150 μl of 10% glutathione Sepharose® slurry (Amersham #27-4574-01) containing 135 mM EDTA. The reaction product was captured on the affinity resin, and washed on a filtration plate (Millipore, MABVNOB50) with phosphate buffered saline for six times to remove free radionucleotide. The incorporation of ^33P into ATF2 was quantified on a microplate scintillation counter (Packard Topcount). Compound inhibition potency on JNK was measured by IC50 value generated from ten concentration inhibition curves fitted into the 3-parameter model: % inhibition=Maximum/(1+(IC50/[Inhibitor])^slope). Data were analyzed on Microsoft Excel for parameter estimation.

melting point [°C]	IC50 (JNK) [nM]	SMILES
180 to 185	–	CCN1CCC[C@@H](NC(=O)[C@H]2CC[C@H](Nc3nccc(-n4ccc5c(OCCCS(C)(=O)=O)cccc54)n3)CC2)C1 (as salt: HCl) [Compound 15, 4-{4-[4-(3-Methanesulfonyl-propoxy)-indol-1-yl]-pyrimidin-2-ylamino}-cyclohexanecarboxylic acid ((R)-1-ethyl-piperidin-3-yl)-amide]
245 to 250	–	C[C@@H]1CN(C(=O)[C@H]2CC[C@H](Nc3nccc(-n4ncc5c(OCCCS(C)(=O)=O)cccc54)n3)CC2)CCN1 (as salt: HCl) [Compound 24, (4-{4-[4-(3-Methanesulfonyl-propoxy)-indazol-1-yl]-pyrimidin-2-ylamino}-cyclohexyl)-((R)-3-methyl-piperazin-1-yl)-methanone]
245 to 250	–	C[C@H]1CN(C(=O)[C@H]2CC[C@H](Nc3nccc(-n4ncc5c(OCC6CCS(=O)(=O)C6)cccc54)n3)CC2)CCN1 (stereo partly drawn) (as salt: HCl) [Compound 25, (4-{4-[4-(1,1-Dioxo-tetrahydro-1λ^6-thiophen-3-ylmethoxy)-indazol-1-yl]-pyrimidin-2-ylamino}-cyclohexyl)-((S)-3-methyl-piperazin-1-yl)-methanone]
> 300	–	CC1(C)CN(C(=O)[C@H]2CC[C@H](Nc3nccc(-n4ccc5c(OCC6CCS(=O)(=O)C6)cccc54)n3)CC2)CCN1 (stereo partly drawn) (as salt: HCl) [Compound 28, (3,3-Dimethyl-piperazin-1-yl)-(4-{4-[4-(1,1-dioxo-tetrahydro-1λ^6-thiophen-3-ylmethoxy)-indol-1-yl]-pyrimidin-2-ylamino}-cyclohexyl)-methanone]
205 to 210	–	CCN1CCCC(NC(=O)[C@H]2CC[C@H](Nc3nccc(-n4ccc5c(OCC6CCS(=O)(=O)C6)cccc54)n3)CC2)C1 (stereo partly drawn) (as salt: HCl) [Compound 29, 4-{4-[4-(1,1-Dioxo-tetrahydro-1λ^6-thiophen-3-ylmethoxy)-indol-1-yl]-pyrimidin-2-ylamino}-cyclohexanecarboxylic acid (1-ethyl-piperidin-3-yl)-amide]
185 to 190	–	CCCN1CCC[C@H](NC(=O)[C@H]2CC[C@H](Nc3nccc(-n4ccc5c(OCCCS(C)(=O)=O)cccc54)n3)CC2)C1 (stereo in doubt) (as salt: HCl) [Compound 14, 4-{4-[4-(3-Methanesulfonyl-propoxy)-indol-1-yl]-pyrimidin-2-ylamino}-cyclohexanecarboxylic acid ((R)-1-propyl-piperidin-3-yl)-amide]
175 to 177	550	CCOC(=O)CC1CCN(C(=O)[C@H]2CC[C@H](Nc3nccc(-n4ccc5c(OCCCS(C)(=O)=O)cccc54)n3)CC2)CC1 [Compound 1, [1-(4-{4-[4-(3-Methanesulfonyl-propoxy)-indol-1-yl]-pyrimidin-2-ylamino}-cyclohexanecarbonyl)-piperidin-4-yl]-acetic acid ethyl ester]
270 to 276	107	CS(=O)(=O)CCCOc1cccc2c1ccn2-c1ccnc(N[C@H]2CC[C@H](C(=O)N3CCC[C@H](C(=O)O)C3)CC2)n1 [Compound 4, (S)-1-(4-{4-[4-(3-Methanesulfonyl-propoxy)-indol-1-yl]-pyrimidin-2-ylamino}-cyclohexanecarbonyl)-piperidine-3-carboxylic acid]
219 to 221	91.7	CS(=O)(=O)CCCOc1cccc2c1ccn2-c1ccnc(N[C@H]2CC[C@H](C(=O)N3CCC(C(N)=O)CC3)CC2)n1 [Compound 5, 1-(4-{4-[4-(3-Methanesulfonyl-propoxy)-indol-1-yl]-pyrimidin-2-ylamino}-cyclohexanecarbonyl)-piperidine-4-carboxylic acid amide]
196 to 198	86	CC(C)(O)C1CCN(C(=O)[C@H]2CC[C@H](Nc3nccc(-n4ccc5c(OCCCS(C)(=O)=O)cccc54)n3)CC2)CC1 [Compound 6, [4-(1-Hydroxy-1-methyl-ethyl)-piperidin-1-yl]-(4-{4-[4-(3-methanesulfonyl-propoxy)-indol-1-yl]-pyrimidin-2-ylamino}-cyclohexyl)-methanone]
209 to 211	51.4	CCOC(=O)C1CCN(C(=O)[C@H]2CC[C@H](Nc3nccc(-n4ccc5c(OCC6CCS(=O)(=O)C6)cccc54)n3)CC2)CC1 (stereo partly drawn) [Compound 7, 1-(4-{4-[4-(1,1-Dioxo-tetrahydro-1λ^6-thiophen-3-ylmethoxy)-indol-1-yl]-pyrimidin-2-ylamino}-cyclohexanecarbonyl)-piperidine-4-carboxylic acid ethyl ester]
172 to 174	70.8	O=C(O)C1CCN(C(=O)[C@H]2CC[C@H](Nc3nccc(-n4ccc5c(OCC6CCS(=O)(=O)C6)cccc54)n3)CC2)CC1 (stereo partly drawn) [Compound 8, 1-(4-{4-[4-(1,1-Dioxo-tetrahydro-1λ^6-thiophen-3-ylmethoxy)-indol-1-yl]-pyrimidin-2-ylamino}-cyclohexanecarbonyl)-piperidine-4-carboxylic acid]
171 to 173	58.4	CCOC(=O)C1(C)CCN(C(=O)[C@H]2CC[C@H](Nc3nccc(-n4ccc5c(OCCCS(C)(=O)=O)cccc54)n3)CC2)CC1 [Compound 10, 1-(4-{4-[4-(3-Methanesulfonyl-propoxy)-indol-1-yl]-pyrimidin-2-ylamino}-cyclohexanecarbonyl)-4-methyl-piperidine-4-carboxylic acid ethyl ester]
229 to 231	93.8	CCN1CC[C@@H](NC(=O)[C@H]2CC[C@H](Nc3nccc(-n4ccc5c(OCCCS(C)(=O)=O)cccc54)n3)CC2)C1 [Compound 12, 4-{4-[4-(3-Methanesulfonyl-propoxy)-indol-1-yl]-pyrimidin-2-ylamino}-cyclohexanecarboxylic acid ((R)-1-ethyl-pyrrolidin-3-yl)-amide]
185 to 190	163	CCCN1CCC[C@@H](NC(=O)[C@H]2CC[C@H](Nc3nccc(-n4ccc5c(OCCCS(C)(=O)=O)cccc54)n3)CC2)C1 [Compound 16, 4-{4-[4-(3-Methanesuflonyl-propoxy)-indol-1-yl]-pyrimidin-2-ylamino}-cyclohexanecarboxylic acid ((S)-1-propyl-piperidin-3-yl)-amide]
174	153	CC1(C(=O)O)CCN(C(=O)[C@H]2CC[C@H](Nc3nccc(-n4ccc5c(OCCCS(C)(=O)=O)cccc54)n3)CC2)CC1 [Compound 18, 1-(4-{4-[4-(3-Methanesulfonyl-propoxy)-indol-1-yl]-pyrimidin-2-ylamino}-cyclohexanecarbonyl)-4-methyl-piperidine-4-carboxylic acid]

SMILES	melting point [°C]	IC50 (JNK) [nM]
CCOC1CC2CCC(C1)N2C(=O)[C@H]1CC[C@H](Nc2nccc(-n3ccc4c(OCCCS(C)(=O)=O)cccc43)n2)CC1 (stereo partly drawn) (as salt: salt) [Compound 26, (3-Ethoxy-8-aza-bicyclo[3.2.1]oct-8-yl)-(4-{4-[4-(3-methanesulfonyl-propoxy)-indol-1-yl]-pyrimidin-2-ylamino}-cyclohexyl)-methanone; compound with formic acid]	125 to 130	–
